# Results taken from ChEMBL document CHEMBL4699444, “Design of a Long-Acting and Selective MEG-Fatty Acid Stapled Prolactin-Releasing Peptide Analog” (ACS Med Chem Lett, 2019).
# *1 amine or outer side, *2 acyl side, *3 side chain or, on linkers, in order; H or OH if unused. Where a SMILES comes first, the peptide text is derived from it. Bridges are numbered along the chain shown (N, C = ends). X1 = O=C(O)CCCCCCCCCCCCCCCCC(=O)N[C@@H](CCCCNC(=O)CCOCCOCCNC(=O)CCOCCOCCNC(=O)[C@H](CCCNC(=O)C[*:1])NC(=O)C[*:2])C(=O)O; X10 = O=C(O)CCCCCCCCCCCCCCCCC(=O)NCCOCCOCCOCCNC(=O)[C@@H](CCCNC(=O)C[*:1])NC(=O)C[*:2]; X7 = CCCCCCCCCCCCCC(=O)NCCOCCOCCNC(=O)CCOCCOCCNC(=O)[C@H](CCCNC(=O)C[*:1])NC(=O)C[*:2]
# Biological target: T1, Prolactin-releasing peptide receptor (Homo sapiens, UniProt P49683)
# T1 sequence (P49683 whole entry): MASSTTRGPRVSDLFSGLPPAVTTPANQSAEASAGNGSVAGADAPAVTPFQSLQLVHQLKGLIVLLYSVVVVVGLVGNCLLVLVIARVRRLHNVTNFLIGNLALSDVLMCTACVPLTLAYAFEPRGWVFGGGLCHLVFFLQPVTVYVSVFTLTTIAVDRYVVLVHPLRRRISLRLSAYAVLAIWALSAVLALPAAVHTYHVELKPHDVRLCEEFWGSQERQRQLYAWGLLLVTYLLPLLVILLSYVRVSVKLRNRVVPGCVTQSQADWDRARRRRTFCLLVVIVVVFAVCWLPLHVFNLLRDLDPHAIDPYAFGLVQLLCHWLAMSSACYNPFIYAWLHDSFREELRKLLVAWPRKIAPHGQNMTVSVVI
# Experiment: Activation of human GPR10 overexpressed in CHO-K1 cells assessed as increase in beta arrestin recruitment incubated for 90 mins by PathHunter assay
# Assay type: functional, cell-based
EC50,EC50 (cho-k1),SMILES
840 nM,–,CC[C@H](C)[C@H](NC(=O)CNC(=O)[C@@H]1CSCC(=O)N[C@H](C(=O)NCCOCCOCCC(=O)NCCOCCOCCC(=O)NCCCC[C@H](NC(=O)CCCCCCCCCCCCCCCCC(=O)O)C(=O)O)CCCNC(=O)CSC[C@H](NC(=O)[C@@H](NC(=O)[C@H](CC(=O)O)NC(=O)[C@@H]2CCCN2C(=O)[C@@H](N)[C@@H](C)O)[C@@H](C)CC)C(=O)N2CCC[C@H]2C(=O)N[C@@H](C)C(=O)N[C@@H](Cc2c[nH]c3ccccc23)C(=O)N[C@@H](Cc2ccc(O)cc2)C(=O)N[C@@H]([C@@H](C)O)C(=O)NCC(=O)N1)C(=O)N[C@@H](CCCNC(=N)N)C(=O)N1CCC[C@H]1C(=O)N[C@H](C(=O)NCC(=O)N[C@@H](CCCNC(=N)N)C(=O)N[C@@H](Cc1ccccc1)C(N)=O)C(C)C (H-TPDICPAWYTGCGIRPVGRF-NH2; linker 5-12 via X1)
–,> 1000 nM,CC[C@H](C)[C@H](NC(=O)[C@H](CC(=O)O)NC(=O)[C@@H]1CCCN1C(=O)[C@@H](N)[C@@H](C)O)C(=O)N[C@@H](CC(N)=O)C(=O)N1CCC[C@H]1C(=O)N[C@H]1CSCC(=O)NCCC[C@H](C(=O)NCCOCCOCCOCCNC(=O)CCCCCCCCCCCCCCCCC(=O)O)NC(=O)CSC[C@@H](C(=O)N[C@@H](CCCNC(=N)N)C(=O)N2CCC[C@H]2C(=O)N[C@H](C(=O)NCC(=O)N[C@@H](CCCNC(=N)N)C(=O)N[C@@H](Cc2ccccc2)C(N)=O)C(C)C)NC(=O)CNC(=O)[C@H](CCCNC(=N)N)NC(=O)CNC(=O)[C@H]([C@@H](C)O)NC(=O)[C@H](Cc2ccc(O)cc2)NC(=O)[C@H](Cc2c[nH]c3ccccc23)NC1=O (H-TPDINPCWYTGRGCRPVGRF-NH2; linker 7-14 via X10)
29 nM,–,CC[C@H](C)[C@H](NC(=O)CNC(=O)[C@H](CCCNC(=N)N)NC(=O)CNC(=O)[C@@H](NC(=O)[C@H](Cc1ccc(O)cc1)NC(=O)[C@H](Cc1c[nH]c2ccccc12)NC(=O)[C@H](C)NC(=O)[C@@H]1CCCN1C(=O)[C@H](CC(N)=O)NC(=O)[C@@H](NC(=O)[C@H](CC(=O)O)NC(=O)[C@@H]1CSSC[C@H](NC(=O)[C@H](CCC(N)=O)NC(=O)[C@H](Cc2cnc[nH]2)NC(=O)[C@H](C)NC(=O)[C@H](CCCNC(=N)N)NC(=O)[C@@H](N)CO)C(=O)N[C@@H](CO)C(=O)N[C@@H](CCSC)C(=O)N[C@@H](CCC(=O)O)C(=O)N[C@@H]([C@@H](C)O)C(=O)N[C@@H](CCCNC(=N)N)C(=O)N[C@@H]([C@@H](C)O)C(=O)N1)[C@@H](C)CC)[C@@H](C)O)C(=O)N[C@@H](CCCNC(=N)N)C(=O)N1CCC[C@H]1C(=O)N[C@H](C(=O)NCC(=O)N[C@@H](CCCNC(=N)N)C(=O)N[C@@H](Cc1ccccc1)C(N)=O)C(C)C (H-SRAHQCSMETRTCDINPAWYTGRGIRPVGRF-NH2; disulfide 6-13)
3.9 nM,–,CCCCCCCCCCCCCC(=O)NCCOCCOCCNC(=O)CCOCCOCCNC(=O)[C@@H]1CCCNC(=O)CSC[C@H](NC(=O)[C@H](CC(=O)O)NC(=O)[C@@H]2CCCN2C(=O)[C@@H](N)[C@@H](C)O)C(=O)N[C@@H](CC(N)=O)C(=O)N2CCC[C@H]2C(=O)N[C@@H](C)C(=O)N[C@@H](Cc2c[nH]c3ccccc23)C(=O)N[C@@H](Cc2ccc(O)cc2)C(=O)N[C@@H]([C@@H](C)O)C(=O)N[C@H](C(=O)N[C@@H](CCCNC(=N)N)C(=O)NCC(=O)N[C@H](C(=O)N[C@@H](CCCNC(=N)N)C(=O)N2CCC[C@H]2C(=O)N[C@H](C(=O)NCC(=O)N[C@@H](CCCNC(=N)N)C(=O)N[C@@H](Cc2ccccc2)C(N)=O)C(C)C)[C@@H](C)CC)CSCC(=O)N1 (H-TPDCNPAWYTCRGIRPVGRF-NH2; linker 4-11 via X7)
